In PMC12337082 (Journal of Biochemical and Molecular Toxicology, 2025):

Columns and labels:
[1] = tested on: L‐929 mouse fibroblast cell line; experiment: MTT cell viability assay, L‐929 control fibroblasts; type: cell-based
From the text: (§1) MCF‐7, MDA‐MB‐231, and L‐929 mouse fibroblast cell lines were obtained from the American Type Culture Collection (ATCC, Manassas, Virginia, USA). MCF‐7 is a hormone‐responsive, differentiated mammary epithelium cell line with an ER+, PR+, and HER2‐ pattern (ATCC, HTB‐22). MDA‐MB‐231 is a triple‐negative differentiated mammary epithelium cell line (ATCC, HTB‐26). The L‐929 mouse fibroblast cell line is derived from the normal subcutaneous connective tissue of a mouse and is commonly used in cytotoxicity assays (ATCC, CCL‐1). All cell lines were cultured in DMEM medium (Dulbecco's Modified Eagle Medium, Gibco), supplemented with 10% fetal bovine serum (Gibco), 1% glutamine, and penicillin/streptomycin (Gibco) in a humidified atmosphere containing 5% CO2 at 37°C. Cell viability was tested using Trypan blue staining.
(§2) The MTT [3‐(4,5‐dimethylthiazol‐2‐yl)−2,5‐diphenyltetrazolium bromide] assay is a colorimetric assay for determining cell metabolic activity. In the MTT assay, the yellow dye MTT that dissolves in water is changed by mitochondrial reductase into a purple formazan that is non‐soluble. The water‐insoluble formazan produced is solubilized in a solubilization buffer, and absorbances are detected.
(§3) In 96‐well plates, the cells were cultivated at a density of 5 × 10^3 cells/well using 100 µL medium. […] 10 μL of the MTT labeling reagent (final concentration 0.5 mg/mL) were added to each well at the end of the incubation periods, and the wells were incubated for an additional 4 h. Next, each well received 100 μL of solubilization buffer (10% SDS in 0.01 M HCl) and was overnight incubated, and the absorbance of formazan products was evaluated at 550 nm using a multi‐mode microplate reader (Synergy H1, Biotech Instruments Inc., Vermont, USA). The results were normalized relative to the absorbances of calculated percent concentrations of DMSO. All tests involved three replicates with three independent experiments.
(§4) All statistical evaluations, including t‐tests and IC50 values, were calculated using the GraphPad Prism software tool (v6.0, GraphPad Software Inc., San Diego, USA). Statistical significance was defined as p ˂ 0.05 (*p < 0.05, **p < 0.01, ***p < 0.001, ****p < 0.0001).

MCF‐7 = experiment: Mitochondrial membrane potential (JC‐1) apoptosis assay, MCF‐7; type: cell-based, human; settings: MCF‐7, 50 μM, 24 h, MMP assay
Protocol: (§5) Apoptosis was also investigated by evaluating mitochondrial membrane potential changes (MMP assay). MCF‐7, MDA‐MB‐231, and L‐929 cells were stained with JC‐1 dye according to the manufacturer's protocols (JC‐1 MMP Assay Kit, KA1324, Abnova). The apoptotic to healthy cell ratio was calculated using absorbances collected from two different fluorescence channels (535/595 for healthy cells, 485/535 for apoptotic cells) (Synergy H1, Biotech Instruments Inc., Vermont, USA).

COX‐2 [2] = experiment: Western blot COX‐2 protein expression, MDA‐MB‐231; type: cell-based, human; settings: 24 h
Protocol: (§6) Total protein levels were measured using the Take3 Multi‐Volume Plate (Synergy H1, BioTek Instruments Inc., Vermont, USA). In accordance with the classical protocol, transferred proteins were exposed to the following primary antibodies: Beta‐actin (NB600‐501, Novus Biologicals), Bax (SPM336, NBP2‐32809), Bcl‐2 (100/D5, NBP2‐15200), cleaved PARP (194C1439, NBP2‐27335), and COX‐2 (D‐12:sc‐166475, Santa Cruz). The bands were visualized with chemiluminescent HRP substrates (Western Bright ECL‐Advansta, K‐12045‐050). Using a chemiluminescence imaging system (Celvin S, BioStep), the relative quantification was done based on the level of β‐actin proteins.

COX‐2 [3] = experiment: Western blot COX‐2 protein expression, MCF‐7; type: cell-based, human; settings: 24 h
Protocol: as §6

PGE2 release = experiment: PGE2 ELISA, MDA‐MB‐231; type: cell-based, human; settings: Homo sapiens; MDA‐MB‐231, 50 µM, 24 h
Protocol: PGE2 ELISA kit (ENZO, ADI‐900‐001) was used to determine prostaglandin synthesis levels. MCF‐7 and MDA‐MB‐231 breast cancer cells were cultured at a density of 1 × 10^6 cells/well in a 6‐well culture dish. […] Following 24 h of incubation, the medium was replaced with a fresh one, 10 µM arachidonic acid was added, and it was further incubated for 1 h. The PGE2 levels were determined according to the kit protocol.

c‐PARP = experiment: Western blot cleaved PARP, MDA‐MB‐231; type: cell-based, human; settings: MDA‐MB‐231, 24 h, all concentrations (50 and 75 µM); not measurable in MCF‐7
Protocol: as §6

MDA‐MB‐231 [4] = experiment: MTT cell viability assay, MDA‐MB‐231; type: cell-based, human; settings: for IC50: MTT
From the text: as §1, §2, §3, §4

Bax/Bcl‐2 ratio = experiment: Western blot Bax/Bcl‐2 ratio in breast cancer cell lines; type: cell-based, human; settings: both cell lines, 50 µM, 24 h
Protocol: as §6

MDA‐MB‐231 [5] = experiment: Annexin V/PI staining, Tali image‐based cytometry, MDA‐MB‐231; type: cell-based, human; settings: MDA‐MB‐231, 24 h
From the text: To assess apoptosis and cell death, cells were stained with Annexin V‐PI dyes (Tali Apoptosis Kit‐Annexin V Alexa Fluor 488 and PI‐, Molecular Probes A10788, Invitrogen) and quantified using Tali Image‐Based Cytometer (Invitrogen) and fluorescence microscopy (Olympus CKX41 Inverted Phase Contrast Fluorescence Microscope furbished with reflected fluorescence illuminator CKX‐RFA).
To assess whether our compounds produce their cytotoxic effects through induction of apoptosis, apoptosis was investigated using Annexin V/PI labeling and MMP methods (Figures 4A−C). In addition, by utilizing TALI image‐based cytometry and fluorescent microscopy, the number of cells was analyzed for different concentrations of agents (Table 4).

MDA‐MB‐231 [6] = experiment: Mitochondrial membrane potential (JC‐1) apoptosis assay, MDA‐MB‐231; type: cell-based, human; settings: MDA‐MB‐231, 50 μM, 24 h, MMP assay
Protocol: as §5

L‐929 = experiment: Mitochondrial membrane potential (JC‐1) apoptosis assay, L‐929; type: cell-based, mouse; settings: L‐929, 50 μM, 24 h, MMP assay
Protocol: as §5

CCc1cccc2c3c([nH]c12)C(CC)(CC(=O)N/N=C/c1ccc(OC)cc1)OCC3 (racemic) [SGK 206, 2‐(1,8‐Diethyl‐1,3,4,9‐tetrahydropyrano[3,4‐b]indole‐1‐yl) acetic acid[(4‐methoxyphenyl)methylene]acetohydrazide]
IC50 ([1]; L‐929, 24 h): 71.3 ± 2.92 µM
IC50 ([1]; L‐929, 48 h): 47.9 ± 1.2 µM
IC50 ([1]; L‐929, 72 h): 49.7 ± 1.64 µM
IC50 ([1]; Mus musculus, L929, 24 h, L‐929, 24 h): 71 µM
IC50 ([1]; Mus musculus, L929, 48 h, L‐929, 48 h): 47 µM
IC50 ([1]; Mus musculus, L929, 72 h, L‐929, 72 h): 49 µM
Increase in apoptosis compared to the control group (MCF‐7): 48%
Decrease in COX‐2 protein expression compared to the control group (COX‐2 [2]; MDA‐MB‐231, 50 µM): 16%
Decrease in COX‐2 protein expression compared to the control group (COX‐2 [2]; MDA‐MB‐231, 75 µM): 37%
Decrease in COX‐2 protein expression compared to the control group (COX‐2 [3]; MCF‐7, 50 µM): 30%
Decrease in COX‐2 protein expression compared to the control group (COX‐2 [3]; MCF‐7, 75 µM): 41%
inhibition at 50 µM (PGE2 release): 91%
c‐PARP (89‐kD fragment) protein change (c‐PARP): consistent activation
IC50 (MDA‐MB‐231 [4]; Homo sapiens, MDA-MB-231, 24 h, MDA‐MB‐231, 24 h): 43 µM
IC50 (MDA‐MB‐231 [4]; Homo sapiens, MDA-MB-231, 48 h, MDA‐MB‐231, 48 h): 38 ± 2.3 µM
IC50 (MDA‐MB‐231 [4]; Homo sapiens, MDA-MB-231, 72 h, MDA‐MB‐231, 72 h): 36 ± 3.19 µM
IC50 (MDA‐MB‐231 [4]; MDA‐MB‐231, 24 h): 43.2 ± 1.94 µM
Selectivity index (SI) (MDA‐MB‐231 [4]; MDA‐MB‐231 in comparison to L‐929, 24 h): 1.65
Selectivity index (SI) (MDA‐MB‐231 [4]; MDA‐MB‐231 in comparison to L‐929, 48 h): 1.26
Selectivity index (SI) (MDA‐MB‐231 [4]; MDA‐MB‐231 in comparison to L‐929, 72 h): 1.38
Bax/Bcl‐2 ratio change (Bax/Bcl‐2 ratio): significantly increased
Apoptotic cells (MDA‐MB‐231 [5]; 25 µM): 1%
Dead cells (MDA‐MB‐231 [5]; 25 µM): 2%
Live cells (MDA‐MB‐231 [5]; 25 µM): 97%
Apoptotic cells (MDA‐MB‐231 [5]; 50 µM): 4%
Dead cells (MDA‐MB‐231 [5]; 50 µM): 3%
Live cells (MDA‐MB‐231 [5]; 50 µM): 93%
Apoptotic cells (MDA‐MB‐231 [5]; 75 µM): 8%
Dead cells (MDA‐MB‐231 [5]; 75 µM): 25%
Live cells (MDA‐MB‐231 [5]; 75 µM): 67%
Increase in apoptosis compared to the control group (MDA‐MB‐231 [6]): 57%
Increase in apoptosis compared to the control group (L‐929): 8%
